Reference: article PMC5940903, “Supramolecular Kandinsky circles with high antibacterial activity” (Nature Communications, 2018)
Read-outs that look alike come from different tables or passages of the source.

Columns and labels:
[1] = tested on: Methicillin-resistant S. aureus (MRSA, ATCC 33591); experiment: microbe, parasite or virus in culture; assay type: cell-based, Staphylococcus aureus; settings: for MIC: Staphylococcus aureus, read-out: MRSA (MIC)
Procedure: Therefore, increasing the solubility of high generation of nested hexagons may enable more efficient studies in biological media and translate to effective antimicrobial activity. […] In addition, the smaller size of G1 was expected to lead to weaker interaction with bacterial membranes.
(§1) Minimum inhibitory concentrations (MICs) against MRSA.4 The antimicrobial activity of the compounds are tested against Methicillin-resistant S. aureus (MRSA, ATCC 33591). Briefly, a single colony of MRSA bacterium was inoculated in 3 mL TSB medium and allowed to grow overnight at 37 °C. The bacteria culture was then diluted at 1:100 and the bacteria were able to re-grow to mid-logarithmic phase in 6-8 h. Next, 50 µL compounds in 2-fold serially diluted solution with the concentrations of 0.1-25 µg/mL were added the 96-well plate containing 50 µL of bacteria suspension (1 × 10^6 CFU/mL) in each well. Following that, the plate was incubated at 37 °C for 16 h, and the absorption of those wells at 600 nm wavelength was read on a Biotek Synergy H1 microtiter […]
growth of MRSA in 24 h. […]

[2] = tested on: E. coli; experiment: MIC against Gram-negative bacterium E. coli; assay type: cell-based
[3] = tested on: human red blood cells (hRBCs); experiment: Hemolytic assay; assay type: cell-based; settings: 37 °C, 1 h
Procedure: as §1
growth of MRSA in 24 h. The experiment were repeated at least three times with duplicates each […]
Hemolytic assay.4 The freshly drawn human red blood cells (hRBCs) were washed with 1× PBS buffer multiple times and centrifuged at 3500 rpm for 10 min, until the supernatant became clear. Next, the supernatant was removed, and the RBCs were diluted into 5% v/v suspension. The aliquots of suspension (50 µL) were then incubated with compounds at various concentrations in 2-fold serially diluted solution (50 µL) at 37 °C for 1 h. The mixture was centrifuged at 3500 rpm for 10 min and the supernatant was collected. Following that, 100 µL PBS was added to 30 µL of the supernatant, and the absorbance of the solution at 540 nm was read on a Biotek Synergy H1 plate reader. 2% Triton X-100 was used as the positive control and 1× PBS was used the negative control.
The hemolysis activity was calculated by the formula % hemolysis =
(Abssample-AbsPBS)/(AbsTriton-AbsPBS)×100%. The experiment was repeated at least three times with […]
Conductance measurement on the planar lipid bilayer. The lipids
1,2-dipalmitoyl-sn-glycero-3-phosphatidylglycerol (DPPG, Avanti Polar Lipids) and 1,2-dipalmitoyl-sn-glycero-3-phosphatidylethanolamine (DPPE, Avanti Polar Lipids) were mixed in chloroform (9:1 in molar ratio, 10 mg/mL, 20 µL). […]

[4] = Escherichia coli, read-out: E. coli (MIC)

| SMILES | MRSA (MIC) ([1]; ATCC 33591) [µg/mL] | MIC ([2]; Escherichia coli; read-out: E. coli (MIC)) [µg/mL] | Hemolysis (H50) [3] | MIC ([1]; MRSA ATCC 33591, TSB medium, 37 °C) [µg/mL] | MIC [2, 4] [µg/mL] | MIC [1] [µg/mL] |
| --- | --- | --- | --- | --- | --- | --- |
| CCCCCCCCCC(=O)N[C@@H](Cc1c[nH]c2ccccc12)C(=O)N[C@H](CC(N)=O)C(=O)N[C@@H](CC(=O)O)C(=O)N[C@@H]1C(=O)NCC(=O)N[C@@H](CCCN)C(=O)N[C@@H](CC(=O)O)C(=O)N[C@H](C)C(=O)N[C@@H](CC(=O)O)C(=O)NCC(=O)N[C@H](CO)C(=O)N[C@@H]([C@H](C)CC(=O)O)C(=O)N[C@@H](CC(=O)c2ccccc2N)C(=O)O[C@@H]1C [Daptomycin, daptomycin, reference compound] | 0.5 |  |  |  |  |  |
| CCCCCCOc1c(-c2ccc(N)cc2)c(OCCCCCC)c(-c2ccc(-c3cc(-c4ccccn4)nc(-c4ccccn4)c3)cc2)c(OCCCCCC)c1-c1ccc(-c2cc(-c3ccccn3)nc(-c3ccccn3)c2)cc1 [L1] |  | > 100 | >250 | > 100 |  |  |
| CCCCCCOc1c(-c2ccc(-c3cc(-c4ccccn4)nc(-c4ccccn4)c3)cc2)c(OCCCCCC)c(-c2ccc(-[n+]3c(-c4ccc(-c5ccc(-c6cc(-c7ccccn7)nc(-c7ccccn7)c6)cc5)cc4)cc(-c4ccc(C(C)(C)C)cc4)cc3-c3ccc(-c4ccc(-c5cc(-c6ccccn6)nc(-c6ccccn6)c5)cc4)cc3)cc2)c(OCCCCCC)c1-c1ccc(-c2cc(-c3ccccn3)nc(-c3ccccn3)c2)cc1 [L2] |  |  | >250 |  | > 100 | > 100 |
| CCCCCCOc1c(-c2ccc(-c3cc(-c4ccccn4)nc(-c4ccccn4)c3)cc2)c(OCCCCCC)c(-c2ccc(-[n+]3c(-c4ccc(-c5ccc(-c6cc(-c7ccccn7)nc(-c7ccccn7)c6)cc5)cc4)cc(-c4ccc(-[n+]5c(-c6ccc(-c7ccc(-c8ccc(-c9cc(-c%10ccccn%10)nc(-c%10ccccn%10)c9)cc8)cc7)cc6)cc(-c6ccc(C(C)(C)C)cc6)cc5-c5ccc(-c6ccc(-c7ccc(-c8cc(-c9ccccn9)nc(-c9ccccn9)c8)cc7)cc6)cc5)cc4)cc3-c3ccc(-c4ccc(-c5cc(-c6ccccn6)nc(-c6ccccn6)c5)cc4)cc3)cc2)c(OCCCCCC)c1-c1ccc(-c2cc(-c3ccccn3)nc(-c3ccccn3)c2)cc1 [L3] |  |  | >250 |  | > 100 | > 100 |
